Key:
[1] = Accelerated stability test (ICH guideline), purity of the stored sucralose product by HPLC; format: physicochemical; details: 40° C. ± 2° C., 60% RH ± 5% RH
Method: A test and analysis method for the purity of sucralose involved in the present disclosure could refer to the Chinese National Standard “GB25531-2010 for Food Additive Sucralose”.
Analysis and determination conditions of the purity of sucralose: High-performance liquid chromatograph from Shimadzu, Japan: RID-10A differential refractive index detector, LC-10ADVP high-pressure pump, and CTO-10ASVP incubator; chromatographic column: Agilent XDB C18 column (250 mm×4.6 mm, 5 μm); mobile phase: methanol-0.125% dipotassium phosphate (DKP) aqueous solution (4:6); column temperature: 30° C.; and flow rate: 1.0 mL/min. Methanol (chromatographically pure), DKP (analytically pure), UPW, and sucralose (purity: 99.9%) are required, and a content is determined by an external standard method.
The products obtained according to Examples 1 to 6 and Comparative Examples 1 to 3 each were subjected to an accelerated stability test.

[2] = Bulk density determination (50 mL measuring cylinder, free-fall impact until compacted); format: physicochemical; details: sample compacted in 50 mL measuring cylinder, free-fall impact at 5 cm height
Method: Determination method of bulk density: A sample of an example is added to a 50 mL measuring cylinder and continuously subjected to free-fall impact at a height of 5 cm until the sample is compacted, and then a mass of the sample is measured to obtain bulk density data.

Row | Compound | Purity after storage, One month [1] [%] | Purity after storage, Six months [1] [%] | Purity after storage, Three months [1] [%] | Purity after storage, Twelve months [1] [%] | Purity after storage, Twenty-four months [1] [%] | Bulk density [2] [g/mL]
1 | OC[C@H]1O[C@H](O[C@]2(CCl)O[C@H](CCl)[C@@H](O)[C@@H]2O)[C@H](O)[C@@H](O)[C@H]1Cl [Comparative Example 1, sucralose] | 99.61 | 99.51 | 99.57 | 99.38 | 99.12 | 0.981
2 | OC[C@H]1O[C@H](O[C@]2(CCl)O[C@H](CCl)[C@@H](O)[C@@H]2O)[C@H](O)[C@@H](O)[C@H]1Cl [Comparative Example 2, sucralose] | 99.73 | 99.63 | 99.69 | 99.47 | 99.20 | 1.021
3 | OC[C@H]1O[C@H](O[C@]2(CCl)O[C@H](CCl)[C@@H](O)[C@@H]2O)[C@H](O)[C@@H](O)[C@H]1Cl [Comparative Example 3, sucralose] | 99.63 | 99.50 | 99.58 | 99.35 | 99.04 | 0.979
4 | OC[C@H]1O[C@H](O[C@]2(CCl)O[C@H](CCl)[C@@H](O)[C@@H]2O)[C@H](O)[C@@H](O)[C@H]1Cl [Example 1, sucralose] | 99.95 | 99.87 | 99.92 | 99.79 | 99.56 | 1.109
5 | OC[C@H]1O[C@H](O[C@]2(CCl)O[C@H](CCl)[C@@H](O)[C@@H]2O)[C@H](O)[C@@H](O)[C@H]1Cl [Example 2, sucralose] | 99.65 | 99.50 | 99.59 | 99.33 | 98.98 | 1.056
6 | OC[C@H]1O[C@H](O[C@]2(CCl)O[C@H](CCl)[C@@H](O)[C@@H]2O)[C@H](O)[C@@H](O)[C@H]1Cl [Example 3, sucralose] | 99.63 | 99.47 | 99.56 | 99.26 | 98.87 | 1.067
7 | OC[C@H]1O[C@H](O[C@]2(CCl)O[C@H](CCl)[C@@H](O)[C@@H]2O)[C@H](O)[C@@H](O)[C@H]1Cl [Example 4, sucralose] | 99.94 | 99.85 | 99.91 | 99.73 | 99.69 | 1.110
8 | OC[C@H]1O[C@H](O[C@]2(CCl)O[C@H](CCl)[C@@H](O)[C@@H]2O)[C@H](O)[C@@H](O)[C@H]1Cl [Example 5, sucralose] | 99.85 | 99.73 | 99.79 | 99.60 | 99.35 | 1.103
9 | OC[C@H]1O[C@H](O[C@]2(CCl)O[C@H](CCl)[C@@H](O)[C@@H]2O)[C@H](O)[C@@H](O)[C@H]1Cl [Example 6, sucralose] | 99.74 | 99.63 | 99.70 | 99.51 | 99.23 | –
10 | OC[C@H]1O[C@H](O[C@]2(CCl)O[C@H](CCl)[C@@H](O)[C@@H]2O)[C@H](O)[C@@H](O)[C@H]1Cl [Raw material, sucralose] | 99.36 | 99.05 | 99.12 | 98.78 | 98.42 | 0.978

From US20230374054A1, “METHOD FOR PURIFYING SUCRALOSE” (ANHUI JINHE INDUSTRIAL CO., LTD., priority 2020, published 2023)
